Measured values from patent US20100285959A1, “HERBICIDAL MIXTURES” (priority 2006, published 2010).

What was measured:
[1] = test system: velvetleaf (ABUTH); experiment: Test 6 field trial, postemergence; assay type: in vivo, Abutilon theophrasti
Source text: (§1) Corn seeds (hybrid ‘Pioneer 35Y62’) were planted in mid spring season, 3.8 cm deep in a silt loam soil having 4% organic matter and a pH of 5.8. Plots were 10.7 m long by 1.5 m wide with rows spaced 76 cm apart. Seeds were spaced 18 cm apart within the rows. The field was managed using conventional tillage practices. […] All treatments included a surfactant except glufosinate treatments, both alone and in combination. […] Results are summarized in Table 6 and are the means of the three replicates.

[2] = test system: yellow foxtail (SETLU); experiment: Test 5 field trial, postemergence; assay type: in vivo, Setaria glauca
Source text: (§2) Corn seeds (hybrid ‘Pioneer 38H69’) were planted in mid spring season, 5.1 cm deep in a silty clay loam soil having 3% organic matter and a pH of 6.5. Plots were 9.1 m long by 3.0 m wide with rows spaced 76 cm apart. The field was managed using conventional tillage practices. […] All treatments included a surfactant except glufosinate treatments, both alone and in combination. […] Results are summarized in Table 5 and are the means of the three replicates.

[3] = test system: common lambsquarters (CHEAL); experiment: Test 6 field trial, postemergence; assay type: in vivo, Chenopodium album
Source text: as §1

[4] = test system: field pennycress (THLAR); experiment: Test 5 field trial, postemergence; assay type: in vivo, Thlaspi arvense
Source text: as §2

[5] = test system: ivyleaf morningglory (IPOHE); experiment: Test 10 field trial, preemergence; assay type: in vivo, Ipomoea hederacea; conditions: 28 DAA
Source text: Corn seeds (hybrid ‘Pioneer 33P65 RR’) were planted in mid spring season, 2.5 cm deep in a silt loam soil. Plots were 9.1 m long by 3.0 m wide with rows spaced 76 cm apart. The field was managed using conventional tillage practices. […] Results are the means of the three replicates.

[6] = test system: tropical spiderwort (COMBE); experiment: Test 11 field trial, preemergence; assay type: in vivo, Commelina benghalensis; set-up: scale not given here
Source text: (§3) Corn seeds (hybrid ‘Pioneer 3041’) were planted in mid spring season, 5 cm deep in a clay soil having 2.6% organic matter and a pH of 5.6. Plots were 8 m long by 1.5 m wide with rows spaced 80 cm apart. Seeds were spaced 15 cm apart within the rows. The field was managed using conventional tillage practices. […] Treatments consisted of Compound 2 or
(§4) Goosegrass was not evaluated 16 or 91 days after application.

[7] = test system: goosegrass (ELEIN); experiment: Test 11 field trial, preemergence; assay type: in vivo, Eleusine indica
Source text: as §3, §4

[8] = test system: Brazilian crabgrass (DIGHO); experiment: Test 11 field trial, preemergence; assay type: in vivo, Digitaria horizontalis; set-up: scale not given here
Source text: as §3, §4

[9] = test system: common lambsquarters (CHEAL); experiment: Test 1 field trial, preemergence; assay type: in vivo, Chenopodium album
Source text: (§5) Corn seeds (hybrid ‘Pioneer 34N43’) were planted in mid spring season, 3.8 cm deep in a silt loam soil having 4.6% organic matter and a pH of 6. Plots were 10.7 m long by 1.5 m wide with rows spaced 76 cm apart. Seeds were spaced 18 cm apart within the rows. The field was managed using conventional tillage practices. […] Results are summarized in Table 1 and are the means of the three replicates. […] Colby's Equation (Colby, S. R. “Calculating Synergistic and Antagonistic Responses of Herbicide Combinations,” Weeds, 15(1), pp 20-22 (1967)) calculates the expected additive effect of herbicidal mixtures, and for two active ingredients is of the form:
(§6) Pa+b=Pa+Pb−(PaPb/100) • wherein Pa+b is the percentage effect of the mixture expected from additive contribution of the individual components, • Pa is the observed percentage effect of the first active ingredient at the same use rate as in the mixture, and • Pb is the observed percentage effect of the second active ingredient at the same use rate as in the mixture.

[10] = test system: redroot pigweed (AMARE); experiment: Test 8 field trial, preemergence; assay type: in vivo, Amaranthus retroflexus; conditions: 56 DAA
Source text: Corn seeds (hybrid ‘Pioneer 31G96’) were planted in mid spring season, 3.8 cm deep in a clay loam soil having 2% organic matter and a pH of 6.6. Plots were 6.1 m long by 3.0 m wide with rows spaced 76 cm apart. Seeds were spaced 15 cm apart within the rows. The field was managed using conventional tillage practices. […] A few of the weed species could not be evaluated at every timing. […] Results are the means of the three replicates.

[11] = test system: alexandergrass (BRAPL); experiment: Test 11 field trial, preemergence; assay type: in vivo, Brachiaria plantaginea; set-up: scale not given here
Source text: as §3, §4

[12] = test system: shepherd's purse (CAPBP); experiment: Test 5 field trial, postemergence; assay type: in vivo, Capsella bursa-pastoris
Source text: as §2

[13] = test system: redroot pigweed (AMARE); experiment: Test 1 field trial, preemergence; assay type: in vivo, Amaranthus retroflexus
Source text: as §5, §6

[14] = 16 DAA, Cpd 2 30 g a.i./ha alone or with glufosinate 470 or glyphosate 1120
[15] = 16 DAA, Cpd 2 60 g a.i./ha alone or with atrazine 1120, glufosinate 470 or glyphosate 1120
[16] = 31 DAA, Cpd 2 30 g a.i./ha alone or with glufosinate 470 or glyphosate 1120
[17] = 31 DAA, Cpd 2 60 g a.i./ha alone or with atrazine 1120, glufosinate 470 or glyphosate 1120
[18] = g a.i./ha: Cpd 2 50, S-Metolachlor 1870
[19] = g a.i./ha: Cpd 2 100, Atrazine 1680, S-Metolachlor 1870
[20] = g a.i./ha: Cpd 2 150, S-Metolachlor 1870
[21] = 16 DAA, Cpd 2/Cpd 1 at 62 g a.i./ha, alone or + atrazine 1500 or metolachlor 2500
[22] = 16 DAA, Cpd 2/Cpd 1 at 125 g a.i./ha, alone or + atrazine 1500 or metolachlor 2500
[23] = 30 DAA, Cpd 2/Cpd 1 at 62 g a.i./ha, alone or + atrazine 1500 or metolachlor 2500
[24] = 30 DAA, Cpd 2/Cpd 1 at 125 g a.i./ha, alone or + atrazine 1500 or metolachlor 2500
[25] = 44 DAA, Cpd 2/Cpd 1 at 62 g a.i./ha, alone or + atrazine 1500 or metolachlor 2500
[26] = 44 DAA, Cpd 2/Cpd 1 at 125 g a.i./ha, alone or + atrazine 1500 or metolachlor 2500
[27] = 62 DAA, Cpd 2/Cpd 1 at 62 g a.i./ha, alone or + atrazine 1500 or metolachlor 2500
[28] = 62 DAA, Cpd 2/Cpd 1 at 125 g a.i./ha, alone or + atrazine 1500 or metolachlor 2500
[29] = 91 DAA, Cpd 2/Cpd 1 at 62 g a.i./ha, alone or + atrazine 1500 or metolachlor 2500
[30] = 91 DAA, Cpd 2/Cpd 1 at 125 g a.i./ha, alone or + atrazine 1500 or metolachlor 2500
[31] = 28 DAA, g a.i./ha: Cpd 2 50, S-Metolachlor 1870
[32] = 28 DAA, g a.i./ha: Cpd 2 100, Atrazine 1680, S-Metolachlor 1870
[33] = 28 DAA, g a.i./ha: Cpd 2 150, S-Metolachlor 1870
[34] = 56 DAA, g a.i./ha: Cpd 2 50, S-Metolachlor 1870
[35] = 56 DAA, g a.i./ha: Cpd 2 100, Atrazine 1680, S-Metolachlor 1870
[36] = 56 DAA, g a.i./ha: Cpd 2 150, S-Metolachlor 1870
[37] = 16 DAA, atrazine 1120, glufosinate 470 or glyphosate 1120 g a.i./ha alone
[38] = 31 DAA, atrazine 1120, glufosinate 470 or glyphosate 1120 g a.i./ha alone
[39] = 16 DAA, atrazine 1500 or metolachlor 2500 g a.i./ha alone
[40] = 30 DAA, atrazine 1500 or metolachlor 2500 g a.i./ha alone
[41] = 44 DAA, atrazine 1500 or metolachlor 2500 g a.i./ha alone
[42] = 62 DAA, atrazine 1500 or metolachlor 2500 g a.i./ha alone
[43] = 91 DAA, atrazine 1500 or metolachlor 2500 g a.i./ha alone
[44] = 28 DAA, g a.i./ha: Atrazine 1680, S-Metolachlor 1870
[45] = 56 DAA, g a.i./ha: Atrazine 1680, S-Metolachlor 1870

COC(=O)c1nc(C2CC2)nc(N)c1Cl [Compound 2, methyl 6-amino-5-chloro-2-cyclopropyl-4-pyrimidinecarboxylate]
ABUTH Obs ([1]; 14 DAA, 30 g a.i./ha): 0%
ABUTH Obs ([1]; 14 DAA, 60 g a.i./ha): 0%
ABUTH Obs ([1]; 28 DAA, 30 g a.i./ha): 0%
ABUTH Obs ([1]; 28 DAA, 60 g a.i./ha): 0%
SETLU Obs [2, 14]: 2%
SETLU Obs [2, 15]: 0%
SETLU Obs [2, 16]: 0%
SETLU Obs [2, 17]: 2%
CHEAL Obs ([3]; 14 DAA, 30 g a.i./ha): 100%
CHEAL Obs ([3]; 14 DAA, 60 g a.i./ha): 100%
CHEAL Obs ([3]; 28 DAA, 30 g a.i./ha): 100%
CHEAL Obs ([3]; 28 DAA, 60 g a.i./ha): 100%
THLAR Obs [4, 14]: 37%
THLAR Obs [4, 15]: 42%
THLAR Obs [4, 16]: 0%
THLAR Obs [4, 17]: 2%
IPOHE Obs [5, 18]: 13%
IPOHE Obs [5, 19]: 5%
IPOHE Obs [5, 20]: 20%
COMBE Obs [6, 21]: 40
COMBE Obs [6, 22]: 60
COMBE Obs [6, 23]: 40
COMBE Obs [6, 24]: 60
COMBE Obs [6, 25]: 40
COMBE Obs [6, 26]: 60
COMBE Obs [6, 27]: 0
COMBE Obs [6, 28]: 40
COMBE Obs [6, 29]: 0
COMBE Obs [6, 30]: 40
ELEIN Obs [7, 23]: 0
ELEIN Obs [7, 24]: 20
ELEIN Obs [7, 25]: 0
ELEIN Obs [7, 26]: 0
ELEIN Obs ([7]; 62 DAA, 62 g a.i./ha, scale 0 to 100): 0
ELEIN Obs ([7]; 62 DAA, 125 g a.i./ha, scale 0 to 100): 0
DIGHO Obs [8, 21]: 0
DIGHO Obs [8, 22]: 40
DIGHO Obs [8, 23]: 0
DIGHO Obs [8, 24]: 40
DIGHO Obs [8, 25]: 0
DIGHO Obs [8, 26]: 0
DIGHO Obs [8, 27]: 0
DIGHO Obs [8, 28]: 0
DIGHO Obs [8, 29]: 0
DIGHO Obs [8, 30]: 0
CHEAL Obs [9, 31]: 0
CHEAL Obs [9, 32]: 7
CHEAL Obs [9, 33]: 7
CHEAL Obs [9, 34]: 7
CHEAL Obs [9, 35]: 55
CHEAL Obs [9, 36]: 100
AMARE Obs [10, 18]: 45%
AMARE Obs [10, 19]: 100%
AMARE Obs [10, 20]: 100%
BRAPL Obs [11, 21]: 40
BRAPL Obs [11, 22]: 70
BRAPL Obs [11, 23]: 0
BRAPL Obs [11, 24]: 75
BRAPL Obs [11, 25]: 0
BRAPL Obs [11, 26]: 60
BRAPL Obs [11, 27]: 0
BRAPL Obs [11, 28]: 0
BRAPL Obs [11, 29]: 0
BRAPL Obs [11, 30]: 0
CAPBP Obs [12, 14]: 25%
CAPBP Obs [12, 15]: 28%
CAPBP Obs [12, 16]: 0%
CAPBP Obs [12, 17]: 2%
AMARE Obs [13, 31]: 0
AMARE Obs [13, 32]: 7
AMARE Obs [13, 33]: 58
AMARE Obs [13, 34]: 7
AMARE Obs [13, 35]: 55
AMARE Obs [13, 36]: 100

CCNc1nc(Cl)nc(NC(C)C)n1 [Atrazine, atrazine, reference compound]
ABUTH Obs ([1]; 14 DAA, 1120 g a.i./ha): 0%
ABUTH Obs ([1]; 28 DAA, 1120 g a.i./ha): 0%
SETLU Obs [2, 37]: 0%
SETLU Obs [2, 38]: 0%
CHEAL Obs ([3]; 14 DAA, 1120 g a.i./ha): 100%
CHEAL Obs ([3]; 28 DAA, 1120 g a.i./ha): 100%
THLAR Obs [4, 37]: 95%
THLAR Obs [4, 38]: 100%
IPOHE Obs [5, 19]: 37%
COMBE Obs [6, 39]: 99
COMBE Obs [6, 40]: 100
COMBE Obs [6, 41]: 100
COMBE Obs [6, 42]: 97
COMBE Obs [6, 43]: 95
ELEIN Obs [7, 40]: 95
ELEIN Obs [7, 41]: 100
ELEIN Obs ([7]; 62 DAA, 1500 g a.i./ha, scale 0 to 100): 100
DIGHO Obs [8, 39]: 60
DIGHO Obs [8, 40]: 40
DIGHO Obs [8, 41]: 20
DIGHO Obs [8, 42]: 0
DIGHO Obs [8, 43]: 0
CHEAL Obs [9, 44]: 100
CHEAL Obs [9, 45]: 100
AMARE Obs [10, 19]: 100%
BRAPL Obs [11, 39]: 75
BRAPL Obs [11, 40]: 50
BRAPL Obs [11, 41]: 50
BRAPL Obs [11, 42]: 0
BRAPL Obs [11, 43]: 0
CAPBP Obs [12, 37]: 95%
CAPBP Obs [12, 38]: 100%
AMARE Obs [13, 44]: 100
AMARE Obs [13, 45]: 93
